According to patent US20230113037A1 (Bayer Aktiengesellschaft, priority 2019, published 2023):

Experiments:
AHR [1] = molecular target: T1, AHR (Homo sapiens, UniProt P35869); assay: In vitro assay 1: antagonism in human cell line (AHR transactivation, firefly luciferase reporter, kynurenic acid prestimulated); assay type: cell-based; details: AHR Antagonism Human IC50 [M], firefly luciferase reporter
T1 construct: U87 MG glioblastoma cells (ATCC #HTB-14) endogenously expressing AHR; endogenous in cells; host or cells: U87 MG glioblastoma cells (ATCC #HTB-14)
T1 sequence (P35869 11-848): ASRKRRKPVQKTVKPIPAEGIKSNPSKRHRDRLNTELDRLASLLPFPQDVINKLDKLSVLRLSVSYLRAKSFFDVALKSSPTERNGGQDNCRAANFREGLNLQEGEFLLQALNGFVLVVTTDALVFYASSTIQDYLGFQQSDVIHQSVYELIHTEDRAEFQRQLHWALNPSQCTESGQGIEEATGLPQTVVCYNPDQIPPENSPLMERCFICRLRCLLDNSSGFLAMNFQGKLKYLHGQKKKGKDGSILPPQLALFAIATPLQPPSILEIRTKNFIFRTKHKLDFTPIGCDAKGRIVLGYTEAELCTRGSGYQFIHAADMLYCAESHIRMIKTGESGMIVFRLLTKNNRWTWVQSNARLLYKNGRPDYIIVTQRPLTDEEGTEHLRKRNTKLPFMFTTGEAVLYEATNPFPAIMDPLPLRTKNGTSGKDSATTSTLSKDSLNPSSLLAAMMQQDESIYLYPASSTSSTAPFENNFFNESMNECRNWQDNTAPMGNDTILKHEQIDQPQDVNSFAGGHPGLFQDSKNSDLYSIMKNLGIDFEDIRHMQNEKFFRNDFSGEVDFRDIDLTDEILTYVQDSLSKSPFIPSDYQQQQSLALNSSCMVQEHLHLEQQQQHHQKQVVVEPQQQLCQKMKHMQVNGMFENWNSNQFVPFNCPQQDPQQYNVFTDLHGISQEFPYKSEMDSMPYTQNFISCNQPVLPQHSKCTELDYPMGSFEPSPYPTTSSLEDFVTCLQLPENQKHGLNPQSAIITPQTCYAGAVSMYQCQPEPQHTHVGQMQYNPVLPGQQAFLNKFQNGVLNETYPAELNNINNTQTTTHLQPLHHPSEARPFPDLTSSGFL
Outline: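 U87 MG + DRE-firefly/constitutive-Renilla stable reporters; kynurenic acid prestim; dual-luc read; Renilla = tox; normalized vs pos/neg controls (pos: 150 μM KYNA + 5 μM staurosporine).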

AHR [2] = molecular target: T2, AHR (Mus musculus, UniProt P30561); assay: In vitro assay 3: antagonism in mouse cell line (AHR transactivation, firefly luciferase reporter, kynurenic acid prestimulated); assay type: cell-based; details: Hepa 1c1c7 cells, 200 μM kynurenic acid, 20 hours, firefly luciferase reporter, read-out: AHR Antagonism Mouse IC50
T2 sequence (P30561 1-848 P471L/N533S/M589L): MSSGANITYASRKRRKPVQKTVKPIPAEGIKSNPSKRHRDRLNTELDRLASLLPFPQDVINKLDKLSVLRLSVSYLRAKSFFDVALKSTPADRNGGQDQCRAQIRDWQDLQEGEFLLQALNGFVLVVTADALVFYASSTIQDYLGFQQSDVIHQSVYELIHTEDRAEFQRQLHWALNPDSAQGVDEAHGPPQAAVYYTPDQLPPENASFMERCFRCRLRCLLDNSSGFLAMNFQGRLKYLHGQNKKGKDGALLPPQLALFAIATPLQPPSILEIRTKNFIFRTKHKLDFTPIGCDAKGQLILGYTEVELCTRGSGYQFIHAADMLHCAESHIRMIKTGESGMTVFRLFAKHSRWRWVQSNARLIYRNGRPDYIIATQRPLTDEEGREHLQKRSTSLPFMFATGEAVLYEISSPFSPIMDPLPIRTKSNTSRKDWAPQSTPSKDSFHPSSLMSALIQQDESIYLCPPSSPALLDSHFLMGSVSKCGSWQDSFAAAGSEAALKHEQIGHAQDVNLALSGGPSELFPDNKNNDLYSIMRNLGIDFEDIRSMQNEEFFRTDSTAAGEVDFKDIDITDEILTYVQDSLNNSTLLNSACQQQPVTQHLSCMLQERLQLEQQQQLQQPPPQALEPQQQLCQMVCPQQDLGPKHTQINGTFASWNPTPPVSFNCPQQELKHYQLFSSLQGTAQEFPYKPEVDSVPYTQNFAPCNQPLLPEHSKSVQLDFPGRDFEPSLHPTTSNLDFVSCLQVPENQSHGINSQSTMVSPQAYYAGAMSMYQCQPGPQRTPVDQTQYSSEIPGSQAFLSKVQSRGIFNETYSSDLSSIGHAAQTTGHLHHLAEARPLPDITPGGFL
Outline: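 Cells were first stimulated with kynurenic acid, then exposed to test compound, after which firefly luciferase from a DRE-containing AHR reporter was read out. Signal was scaled between positive and negative controls. Cells not given kynurenic acid provided the inhibition reference.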

Compound | IC50 (AHR [1]) [M] | IC50 (AHR [2]) [nM]
Cc1nn(C)cc1-c1nc2c3cccc(C(F)(F)F)c3nc(N[C@@H]3CNCCNC3=O)n2n1 [Example 975, (6R)-6-{[2-(1,3-dimethyl-1H-pyrazol-4-yl)-7-(trifluoromethyl)[1,2,4]triazolo[1,5-c]quinazolin-5-yl]amino}-1,4-diazepan-5-one] | 8.67e-10 | 4.24
O=C1NCCNC[C@H]1Nc1nc2c(Br)cccc2c2nc(-c3cn[nH]c3)nn12 [Example 976, (6R)-6-{[7-bromo-2-(1H-pyrazol-4-yl)[1,2,4]triazolo[1,5-c]quinazolin-5-yl]amino}-1,4-diazepan-5-one] | 3.11e-06 | 4640
O=C1NCCNC[C@H]1Nc1nc2c(Br)cccc2c2nc(-c3cnn(C(F)F)c3)nn12 [Example 978, (6R)-6-({7-bromo-2-[1-(difluoromethyl)-1H-pyrazol-4-yl][1,2,4]triazolo[1,5-c]quinazolin-5-yl}amino)-1,4-diazepan-5-one] | 2.03e-09 | 1.34
Cc1c(-c2nc3c4cccc(Br)c4nc(N[C@@H]4CNCCNC4=O)n3n2)cnn1C [Example 979, (6R)-6-{[7-bromo-2-(1,5-dimethyl-1H-pyrazol-4-yl)[1,2,4]triazolo[1,5-c]quinazolin-5-yl]amino}-1,4-diazepan-5-one] | 2.13e-08 | 10.5
CCn1cc(-c2nc3c4cccc(Br)c4nc(N[C@@H]4CNCCNC4=O)n3n2)cn1 [Example 980, (6R)-6-{[7-bromo-2-(1-ethyl-1H-pyrazol-4-yl)[1,2,4]triazolo[1,5-c]quinazolin-5-yl]amino}-1,4-diazepan-5-one] | 5.22e-09 | 6.35
CC(C)n1cc(-c2nc3c4cccc(Br)c4nc(N[C@@H]4CNCCNC4=O)n3n2)cn1 [Example 981, (6R)-6-({7-bromo-2-[1-(propan-2-yl)-1H-pyrazol-4-yl][1,2,4]triazolo[1,5-c]quinazolin-5-yl}amino)-1,4-diazepan-5-one] | 2.69e-09 | 5.95
O=C1NCCNC[C@H]1Nc1nc2c(Br)cccc2c2nc(-c3cnn(CC4CCC4)c3)nn12 [Example 982, (6R)-6-({7-bromo-2-[1-(cyclobutylmethyl)-1H-pyrazol-4-yl][1,2,4]triazolo[1,5-c]quinazolin-5-yl}amino)-1,4-diazepan-5-one] | 9.42e-09 | 20.6
Cn1cc(-c2nc3c4cccc(Br)c4nc(N[C@H]4CNCCNC4=O)n3n2)cn1 [Example 983, (6S)-6-{[7-bromo-2-(1-methyl-1H-pyrazol-4-yl)[1,2,4]triazolo[1,5-c]quinazolin-5-yl]amino}-1,4-diazepan-5-one] | 8.18e-08 | 189
CC(C)n1cc(-c2nc3c4cccc(Br)c4nc(N[C@H]4CNCCNC4=O)n3n2)cn1 [Example 984, (6S)-6-({7-bromo-2-[1-(propan-2-yl)-1H-pyrazol-4-yl][1,2,4]triazolo[1,5-c]quinazolin-5-yl}amino)-1,4-diazepan-5-one] | 3.84e-08 | 41.2
C[C@@H](Nc1nc2c(Br)cccc2c2nc(-c3cnn(C)c3)nn12)C(=O)N1CCNCC1 [Example 985, (2R)-2-{[7-bromo-2-(1-methyl-1H-pyrazol-4-yl)[1,2,4]triazolo[1,5-c]quinazolin-5-yl]amino}-1-(piperazin-1-yl)propan-1-one hydrogen chloride (1/1)] | 6.49e-08 | 95
CNCCNC(=O)[C@@H](C)Nc1nc2c(Br)cccc2c2nc(-c3ccc(OC)cc3)nn12 [Example 987, N^2-[7-bromo-2-(4-methoxyphenyl)[1,2,4]triazolo[1,5-c]quinazolin-5-yl]-N-[2-(methylamino)ethyl]-D-alaninamide-hydrogen chloride (1/1)] | 8.61e-09 | 13.2
COc1ccc(-c2nc3c4ccccc4nc(N[C@H](C)C(=O)N4CCNCC4)n3n2)cc1 [Example 988, (2R)-2-{[2-(4-methoxyphenyl)[1,2,4]triazolo[1,5-c]quinazolin-5-yl]amino}-1-(piperazin-1-yl)propan-1-one-hydrogen chloride (1/1)] | 1.49e-08 | 13.8
CNCCNC(=O)[C@@H](C)Nc1nc2c(Br)cccc2c2nc(-c3cnn(C)c3)nn12 [Example 989, N^2-[7-bromo-2-(1-methyl-1H-pyrazol-4-yl)[1,2,4]triazolo[1,5-c]quinazolin-5-yl]-N-[2-(methylamino)ethyl]-D-alaninamide] | 5.18e-07 | 399
CNCCNC(=O)[C@@H](C)Nc1nc2ccccc2c2nc(-c3ccc(OC)cc3)nn12 [Example 990, N^2-[2-(4-methoxyphenyl)[1,2,4]triazolo[1,5-c]quinazolin-5-yl]-N-[2-(methylamino)ethyl]-D-alaninamide-hydroxy chloride (1/1)] | 4.29e-08 | 73.6
CNCCNC(=O)[C@@H](C)Nc1nc2c(Br)cccc2c2nc(-c3cnn(C)c3)nn12 [Example 991, N^2-[7-bromo-2-(1-methyl-1H-pyrazol-4-yl)[1,2,4]triazolo[1,5-c]quinazolin-5-yl]-N-[2-(methylamino)ethyl]-D-alaninamide-hydrogen chloride (1/1)] | 3.13e-08 | 76.6
COc1ccc(-c2nc3c4cccc(Br)c4nc(N[C@H](C)C(=O)NCCN4CCNCC4)n3n2)cc1 [Example 992, N^2-[7-bromo-2-(4-methoxyphenyl)[1,2,4]triazolo[1,5-c]quinazolin-5-yl]-N-[2-(piperazin-1-yl)ethyl]-D-alaninamide-hydrogen chloride (1/2)] | 3.94e-09 | 7.74
C[C@@H](Nc1nc2c(Br)cccc2c2nc(-c3cnn(C)c3)nn12)C(=O)NCCN1CCNCC1 [Example 993, N^2-[7-bromo-2-(1-methyl-1H-pyrazol-4-yl)[1,2,4]triazolo[1,5-c]quinazolin-5-yl]-N-[2-(piperazin-1-yl)ethyl]-D-alaninamide-hydrogen chloride (1/2)] | 5.88e-07 | 4590
CN1CCNC(=O)[C@H](Nc2nc3c(Br)cccc3c3nc(-c4cnn(C)c4)nn23)C1 [Example 994, (6R)-6-{[7-bromo-2-(1-methyl-1H-pyrazol-4-yl)[1,2,4]triazolo[1,5-c]quinazolin-5-yl]amino}-1-methyl-1,4-diazepan-5-one] | 2.32e-08 | 25.6
COc1ccc(-c2nc3c4cccc(Br)c4nc(N[C@@H]4CN(C)CCNC4=O)n3n2)cc1 [Example 995, (6R)-6-{[7-bromo-2-(4-methoxyphenyl)[1,2,4]triazolo[1,5-c]quinazolin-5-yl]amino}-1-methyl-1,4-diazepan-5-one] | 6.97e-10 | 2.11
COc1ccc(-c2nc3c4cccc(OCCC(C)(C)OC)c4nc(N[C@@H]4CCCCNC4=O)n3n2)cc1 [Example 996, (3R)-3-{[7-(3-methoxy-3-methylbutoxy)-2-(4-methoxyphenyl)[1,2,4]triazolo[1,5-c]quinazolin-5-yl]amino}azepan-2-one] | 2.8e-07 | 78.1
